Laboratory results taken from publication PMC10395314 (RSC Advances, 2023).

Columns and labels:
[1] = system: MCF-7; test: MTT anti-proliferative assay on MCF-7; conditions: Homo sapiens, MCF7, read-out: In vitro cytotoxicity IC50 MCF-7
[2] = system: VEGFR-2; test: MM-GBSA binding free energy and decomposition; conditions: 15a versus sorafenib
[3] = system: caspase-9; test: Caspase-9 level in HepG2 cells; assay type: cell-based, human
[4] = biological target: VEGFR-2 (Homo sapiens, UniProt P35968); test: In vitro VEGFR-2 inhibition; assay type: biochemical
VEGFR-2 (Homo sapiens, UniProt P35968), sequence (P35968 20-1356): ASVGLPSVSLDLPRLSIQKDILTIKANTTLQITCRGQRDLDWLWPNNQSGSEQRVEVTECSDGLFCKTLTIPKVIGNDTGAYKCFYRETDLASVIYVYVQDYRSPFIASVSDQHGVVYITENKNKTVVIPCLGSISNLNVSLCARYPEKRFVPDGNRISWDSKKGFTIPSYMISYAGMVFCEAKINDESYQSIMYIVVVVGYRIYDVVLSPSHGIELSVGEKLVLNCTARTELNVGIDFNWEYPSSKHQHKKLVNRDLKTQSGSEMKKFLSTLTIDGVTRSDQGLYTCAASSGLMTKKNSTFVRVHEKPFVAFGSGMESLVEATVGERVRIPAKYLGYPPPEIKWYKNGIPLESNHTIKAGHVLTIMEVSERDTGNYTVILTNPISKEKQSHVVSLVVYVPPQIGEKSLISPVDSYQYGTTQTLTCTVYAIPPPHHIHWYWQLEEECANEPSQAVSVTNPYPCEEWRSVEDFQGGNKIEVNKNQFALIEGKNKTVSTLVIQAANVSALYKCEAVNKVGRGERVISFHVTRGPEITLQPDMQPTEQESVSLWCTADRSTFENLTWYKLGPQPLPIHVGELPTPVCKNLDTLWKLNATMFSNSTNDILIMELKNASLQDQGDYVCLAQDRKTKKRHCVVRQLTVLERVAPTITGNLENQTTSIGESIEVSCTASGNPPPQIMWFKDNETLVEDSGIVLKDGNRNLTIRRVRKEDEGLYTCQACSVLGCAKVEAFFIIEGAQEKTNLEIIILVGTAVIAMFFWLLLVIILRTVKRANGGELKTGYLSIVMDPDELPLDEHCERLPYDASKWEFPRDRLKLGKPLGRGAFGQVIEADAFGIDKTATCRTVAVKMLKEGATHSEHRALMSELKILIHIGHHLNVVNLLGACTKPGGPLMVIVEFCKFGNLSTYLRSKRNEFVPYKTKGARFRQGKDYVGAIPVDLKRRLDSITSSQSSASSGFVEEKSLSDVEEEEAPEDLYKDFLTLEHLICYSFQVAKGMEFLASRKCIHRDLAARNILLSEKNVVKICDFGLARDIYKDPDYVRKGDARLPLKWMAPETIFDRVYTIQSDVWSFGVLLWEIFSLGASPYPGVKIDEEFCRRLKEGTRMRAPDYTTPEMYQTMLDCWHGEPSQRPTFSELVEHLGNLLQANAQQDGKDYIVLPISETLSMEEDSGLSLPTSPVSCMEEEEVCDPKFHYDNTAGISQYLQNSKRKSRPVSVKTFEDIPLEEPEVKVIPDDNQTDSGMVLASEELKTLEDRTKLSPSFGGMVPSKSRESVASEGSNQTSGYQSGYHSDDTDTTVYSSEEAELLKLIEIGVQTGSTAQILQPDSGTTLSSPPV

[5] = system: Vero cells; test: Safety assay on non-cancerous Vero cells; assay type: cell-based
[6] = system: HepG2 cells; test: Wound healing; assay type: cell-based, human
[7] = system: HepG2; test: MTT anti-proliferative assay on HepG2; conditions: Homo sapiens, HepG2, read-out: In vitro cytotoxicity IC50 HepG2
[8] = system: caspase-3; test: Caspase-3 level in HepG2 cells; assay type: cell-based, human
[9] = system: HepG2 cells; test: Apoptosis assay, Annexin V-FITC/PI flow cytometry; assay type: cell-based, human
[10] = HepG2, 0.76 μM, control HepG2 = 1

For CC(=NNC(=O)c1cccc(Br)c1)c1ccc(NC(=O)Cn2c(=O)c3c(ncn3C)n(C)c2=O)cc1 [Compound 15a, N-(4-(1-(2-(3-Bromobenzoyl)hydrazono)ethyl)phenyl)-2-(3,7-dimethyl-2,6-dioxo-2,3,6,7-tetrahydro-1H-purin-1-yl)acetamide], the IC50 [1] was 1.08 ± 0.02 µM, the “MM-GBSA binding energy smaller than that of the reference compound by” value [2] was 8.5 kcal/mol and the “increase of caspase-9 level compared to control” value ([3]; HepG2, 0.76 μM (IC50 value)) was 2.37 fold. For the same molecule, the “Protein expression Caspase-9” value [3, 10] was 2.378, the IC50 [4] was 0.239 µM and the IC50 ([5]; Chlorocebus sabaeus, Vero, read-out: IC50 against Vero cells) was 75.2 µM. For the same molecule, the “selectivity index against HepG2” value ([5]; based on Vero IC50 versus HepG2 IC50) was 98.97, the “selectivity index against MCF7” value ([5]; based on Vero IC50 versus MCF-7 IC50) was 69.64 and the “decrease of scratch width” value ([6]; HepG2, within 48 hours, untreated 65.9%) was 34.17%. For the same molecule, the “At 0 h Area” value ([6]; HepG2 scratch, 0 h) was 1000.667, the “At 0 h Width” value ([6]; HepG2 scratch, 0 h) was 999.7462 and the “At 48 h Width” value ([6]; HepG2 scratch, 48 h, control 339.5385) was 657.7792. The “At 48 h Area” value ([6]; HepG2 scratch, 48 h, control 340.5) was 658.6667, the RM ([6]; HepG2 scratch, after 48 hours, control 13.74681) was 7.124 μm and the Wound closure ([6]; HepG2 scratch, after 48 hours, control 65.96135) was 34.18 % μm^2. For the same molecule, the IC50 [7] was 0.76 ± 0.01 µM, the “increase of caspase-3 level compared to control” value ([8]; HepG2, 0.76 μM (IC50 value)) was 3.45 fold and the “Protein expression Caspase-3” value [8, 10] was 3.451. The “Apoptosis Late” value ([9]; HepG2, 0.76 µM for 72 h, control 0.13) was 12.17, the “Apoptosis Early” value ([9]; HepG2, 0.76 µM for 72 h, control 0.71) was 9.63 and the Necrosis ([9]; HepG2, 0.76 µM for 72 h, control 2.22) was 7.69. The “Apoptosis Total” value ([9]; HepG2, 0.76 µM for 72 h, control 3.06) was 29.49, the “proportion of HepG2 cells in late-stage apoptosis” value ([9]; HepG2, from 0.71% in control) was 9.63% and the “proportion of HepG2 cells in early-stage apoptosis” value ([9]; HepG2, from 3.06% in control) was 29.49%.
CC(=NNC(=O)c1ccccc1Cl)c1ccc(NC(=O)Cn2c(=O)c3c(ncn3C)n(C)c2=O)cc1 [Compound 15b, N-(4-(1-(2-(2-Chlorobenzoyl)hydrazono)ethyl)phenyl)-2-(3,7-dimethyl-2,6-dioxo-2,3,6,7-tetrahydro-1H-purin-1-yl)acetamide] showed an IC50 [1] of 0.65 ± 0.01 µM and an IC50 [7] of 0.78 ± 0.02 µM.
Molecule CC(=NNC(=O)c1cccc(Cl)c1)c1cccc(NC(=O)Cn2c(=O)c3c(ncn3C)n(C)c2=O)c1 [Compound 16, N-(3-(1-(2-(3-Chlorobenzoyl)hydrazono)ethyl)phenyl)-2-(3,7-dimethyl-2,6-dioxo-2,3,6,7-tetrahydro-1H-purin-1-yl)acetamide] has an IC50 [1] of 2.47 ± 0.04 µM and an IC50 [7] of 1.23 ± 0.03 µM.
With CC(=NNC(=O)c1cccnc1)c1ccc(NC(=O)Cn2c(=O)c3c(ncn3C)n(C)c2=O)cc1 [Compound 17, 2-(3,7-Dimethyl-2,6-dioxo-2,3,6,7-tetrahydro-1H-purin-1-yl)-N-(4-(1-(2-nicotinoylhydrazono)ethyl)phenyl)acetamide] the IC50 [1] was 0.8 ± 0.01 µM and the IC50 [7] was 1.05 ± 0.01 µM.
CNC(=O)c1cc(Oc2ccc(NC(=O)Nc3ccc(Cl)c(C(F)(F)F)c3)cc2)ccn1 [Sorafenib, reference compound] was tested, and the IC50 [1] was 3.17 ± 0.01 µM and the IC50 [7] was 2.24 ± 0.06 µM.
